Measurements as given in patent publication US10787483B2, “Antimicrobial peptidomimetics” (Agency for Science, Technology and Research, priority 2014, dated 2020).
Values after ≈ are worked out from the molar mass of the structure shown. Where two headings read alike, the source gives them in different places. Square brackets hold non-standard residues; d marks the D form. Peptide text beside a SMILES is read from it. * marks the point of attachment. ξ: configuration not given here. Phe(4-guanidino) = N=C(N)Nc1ccc(C[C@H](N)C(=O)O)cc1; Bip = N[C@@H](Cc1ccc(-c2ccccc2)cc1)C(=O)O; ξpGlu = O=C1CCC(C(=O)O)N1; Agmatine = N=C(N)NCCCCN*; Orn = NCCC[C@H](N)C(=O)O

Tests used:
MRSA (ATCC 33591) = assay: MIC determination by broth microdilution vs. MRSA (ATCC 33591); type: cell-based, Staphylococcus aureus; settings: for MIC: Staphylococcus aureus
Description: (§1) Using a sterile loop, 3 to 5 isolated colonies of bacteria of the same morphological appearance are selected from the overnight agar plate. The colonies are transferred into a conical flask containing 5 mL of liquid medium (i.e. Mueller-Hinton broth). The broth is incubated at 37° C. in a shaker at 220 rpm until it reaches a turbidity that is equal to the turbidity of a McFarland Standard 0.5 (correspond to 1×10^8 cfu/mL). This culture growth step will require 1-2 hours depending on the bacteria tested.
During this pause period, an antibacterial dilution is prepared. Therefore an antibacterial stock solution is diluted in Mueller-Hinton broth. The concentration of DMSO is kept at 5%. 100 μL of the antibacterial solution are dispensed into the first well of a row. 50 μL of medium containing 0.5% of DMSO are dispensed to the rest of the wells. A 2-fold serial dilution is achieved by transferring 50 μL from the first well (containing the highest concentration of antibacterial) into the second well, and continuing like this until the 10th well in the row. The final 50 μL are discarded so that every well has 50 μL of each antibacterial dilution.
The 11th well was used as the growth control well (medium with bacterial inoculums, no antibacterial) while the 12th well was the sterility control well (medium only).
The bacterial suspension prepared above is mixed thoroughly, and diluted by a factor of 1:100 in the sterile medium. Each well and the growth control well is inoculated with 50 μL of the bacterial suspension. […] To the sterility control well 50 μL of sterile medium are added in place of the bacterial suspension. 10 μL aliquot from the growth control well is removed immediately after inoculating the plate and pipetted it into a sterile Eppendorf tube holding 990 μL of sterile broth. It is mixed well by vortexing. This suspension is further diluted (1:10) by pipetting 100 μL into 900 μL of sterile broth and mixing it well. 100 μL of each of the two dilutions are plated onto two different antibacterial-free agar plates. A sterile cell spreader is used to spread the liquid. Then the plate is sealed with a transparent adhesive film. The microtiter plate and agar plates are incubated at 37° C. for 16-20 hours or until satisfactory growth is obtained. The colonies on the agar plate are counted the next day to verify that the right number of cfu was inoculated. The plate is agitated in the SpectraMax spectrophotometer for 90 s and the OD600 for all the wells in the plate is recorded.

S. aureus (ATCC 29213) [1] = assay: Bactericidal activity at MIC after dilution of the antibacterial (FIG. 2); type: cell-based, Staphylococcus aureus; settings: treatment at its MIC
S. aureus (RN 4220) = assay: MIC determination by broth microdilution vs. S. aureus (RN 4220); type: cell-based; settings: Staphylococcus aureus
Description: as §1
(§2) During this pause period, an antibacterial dilution is prepared. Therefore an antibacterial stock solution is diluted in Mueller-Hinton broth. The concentration of DMSO is kept at 5%. 100 μL of the antibacterial solution are dispensed into the first well of a row. 50 μL of medium containing 0.5% of DMSO are dispensed to the rest of the wells. […]
(§3) The bacterial suspension prepared above is mixed thoroughly, and diluted by a factor of 1:100 in the sterile medium. […] The colonies on the agar plate are counted the next day to verify that the right number of cfu was inoculated. The plate is agitated in the SpectraMax spectrophotometer for 90 s and the OD600 for all the wells in the plate is recorded.

S. aureus (ATCC 29213) [2] = assay: MIC determination by broth microdilution vs. S. aureus (ATCC 29213); type: cell-based; settings: Staphylococcus aureus
Description: as §1, §2, §3

[3] = test system: Strep. pneumoniae (ATCC 49619); assay: MIC determination by broth microdilution vs. Strep. pneumoniae (ATCC 49619); type: cell-based, Streptococcus pneumoniae
Description: as §1, §2, §3

[4] = test system: Strep. pyogenes (ARC 838); assay: MIC determination by broth microdilution vs. Strep. pyogenes (ARC 838); type: cell-based; settings: Streptococcus pyogenes
Description: as §1, §2, §3

E. faecalis = assay: Antibacterial activity on E. faecalis; type: cell-based
Description: as §1, §2, §3

[5] = MRSA (ATCC 33591), read-out: MIC

Structure (SMILES) | MIC (MRSA (ATCC 33591); [5]) | further results
N=C(N)NCCC[C@H](NC(=O)[C@@H](N)Cc1ccc(-c2ccccc2)cc1)C(=O)N[C@@H](Cc1ccc(-c2ccccc2)cc1)C(=O)N[C@H]1CC[C@H](NC(=N)N)CC1 [Compound 7] | 6.25 µM (≈ 4.74 µg/mL) | 
N=C(N)NCCCCNC(=O)[C@H](Cc1ccc(-c2ccccc2)cc1)NC[C@H](CCCNC(=N)N)NC(=O)[C@@H](N)Cc1ccc(-c2ccccc2)cc1 [Compound 28] | 12.5 µM (≈ 8.99 µg/mL) | 
CC(=O)NC[C@H]1CN(c2ccc(N3CCOCC3)c(F)c2)C(=O)O1 [Linezolid, reference compound] |  | mode of action (regrowth after dilution of the antibacterial) (S. aureus (ATCC 29213) [1]): bacteriostatic
N=C(N)NCCCCNC(=O)[C@H](Cc1ccc(-c2ccccc2)cc1)NC(=O)[C@H](CCCNC(=N)N)NC(=O)[C@H](Cc1ccc(-c2ccccc2)cc1)NC(=O)C1CCC(=O)N1 (stereo partly shown) [Compound 24] ([ξpGlu][Bip]R[Bip]-Agmatine) | 12.5 µM (≈ 10.6 µg/mL) | 
N=C(N)NCCC[C@H](NC(=O)[C@@H](N)Cc1ccc(-c2ccccc2)cc1)C(=O)N[C@@H](Cc1ccc(-c2ccccc2)cc1)C(=O)N[C@H]1CC[C@@H](NC(=N)N)CC1 [Compound 6] | 6.25 µM (≈ 4.74 µg/mL) | 
N=C(N)NCCCCNC(=O)[C@H](Cc1ccc(-c2ccccc2)cc1)NC(=O)[C@H](CNC(=N)N)NC(=O)[C@@H](N)Cc1ccc(-c2ccccc2)cc1 [Compound 16] | 25 µM (≈ 17.6 µg/mL) | 
N=C(N)NCCCCNC(=O)[C@H](Cc1ccc(-c2ccccc2)cc1)NC(=O)[C@H](CCCNC(=N)N)NC(=O)[C@@H](N)Cc1ccc(Cl)cc1 [Compound 22] | 25 µM (≈ 17.3 µg/mL) | 
N=C(N)NCCCCNC(=O)[C@H](Cc1ccc(-c2ccccc2)cc1)NC(=O)[C@H](CCCCNC(=N)N)NC(=O)[C@@H](N)Cc1ccc(-c2ccccc2)cc1 [Compound 19] | 6.25 µM (≈ 4.67 µg/mL) | 
N=C(N)NCCCCNC(=O)[C@H](Cc1ccc(-c2ccccc2)cc1)NC(=O)[C@H](CCCCN)NC(=O)[C@@H](N)Cc1ccc(-c2ccccc2)cc1 [Compound 13] (H-[Bip]-Lys-[Bip]-Agmatine) | 6.25 µM (≈ 4.41 µg/mL) | 
N=C(N)NCCC[C@H](NC(=O)[C@@H](N)Cc1ccc(-c2ccccc2)cc1)C(=O)N[C@@H](Cc1ccc(-c2ccccc2)cc1)C(=O)NCCCCNC(N)=O [Compound 5] | 25 µM (≈ 18.3 µg/mL) | 
C/N=C(/NC)NCCC[C@H](NC(=O)[C@@H](N)Cc1ccc(-c2ccccc2)cc1)C(=O)N[C@@H](Cc1ccc(-c2ccccc2)cc1)C(=O)NCCCCNC(=N)N [Compound 15] | 12.5 µM (≈ 9.51 µg/mL) | 
N=C(N)NCCCCNC(=O)[C@H](Cc1ccc(-c2ccccc2)cc1)NC(=O)[C@H](Cc1ccc(NC(=N)N)cc1)NC(=O)[C@@H](N)Cc1ccc(-c2ccccc2)cc1 [Compound 17] (H-[Bip]-[Phe(4-guanidino)]-[Bip]-Agmatine) | 6.25 µM (≈ 4.88 µg/mL) | 
CC(C)(C)c1ccc(-c2ccc(C[C@H](NC(=O)[C@H](CCCNC(=N)N)NC(=O)[C@@H](N)Cc3ccc(-c4ccc(C(C)(C)C)cc4)cc3)C(=O)NCCCCNC(=N)N)cc2)cc1 [Compound 26] | 12.5 µM (≈ 10.6 µg/mL) | 
N=C(N)NCCCCNC(=O)[C@H](Cc1ccc(-c2ccccc2)cc1)NC(=O)CN(CCCNC(=N)N)C(=O)[C@@H](N)Cc1ccc(-c2ccccc2)cc1 [Compound 21] | 6.25 µM (≈ 4.58 µg/mL) | 
N=C(N)NCCCCNC(=O)[C@H](Cc1ccc(-c2ccccc2)cc1)NC(=O)[C@@H](CCCNC(=N)N)NC(=O)[C@@H](N)Cc1ccc(-c2ccccc2)cc1 [Compound 3] | 25 µM (≈ 18.3 µg/mL) | 
N=C(N)NCCCCNC(=O)[C@H](Cc1ccc(-c2ccccc2)cc1)NC(=O)[C@H](CCCNC(=N)N)NC[C@@H](N)Cc1ccc(-c2ccccc2)cc1 [Compound 29] | 3.12 µM (≈ 2.25 µg/mL) | 
CC(=O)N[C@@H](Cc1ccc(-c2ccccc2)cc1)C(=O)N[C@@H](CCCNC(=N)N)C(=O)N[C@@H](Cc1ccc(-c2ccccc2)cc1)C(=O)NCCCCNC(=N)N [Compound 23] | 12.5 µM (≈ 9.69 µg/mL) | 
N=C(N)NCCCCNC(=O)CN(Cc1ccc(-c2ccccc2)cc1)C(=O)[C@H](CCCNC(=N)N)NC(=O)[C@@H](N)Cc1ccc(-c2ccccc2)cc1 [Compound 10] |  | MIC (MRSA (ATCC 33591)): 3.12 µM (≈ 2.29 µg/mL)
N=C(N)NCCCCNC(=O)[C@H](Cc1ccc(-c2ccccc2)cc1)NC(=O)C[C@H](CCCNC(=N)N)NC(=O)[C@@H](N)Cc1ccc(-c2ccccc2)cc1 [Compound 20] | 6.25 µM (≈ 4.67 µg/mL) | 
N=C(N)NCCCCNC(=O)[C@H](Cc1ccc(Cl)cc1)NC(=O)[C@H](CCCNC(=N)N)NC(=O)[C@@H](N)Cc1ccc(-c2ccccc2)cc1 [Compound 12] | 12.5 µM (≈ 8.64 µg/mL) | 
N=C(N)NCCCCNC(=O)[C@H](Cc1ccc(-c2ccccc2)cc1)NC(=O)[C@H](CCCNC(=N)N)NC(=O)[C@@H](N)Cc1ccc(-c2ccccc2)cc1 [Compound 1a, Bip-Arg-Bip-agmantine] |  | MIC value compared with Linezolid and Daptomycin (MRSA (ATCC 33591); S. aureus tests (ATCC 33591, RN 4220, ATCC 29123)): lower MIC value; MIC (MRSA (ATCC 33591); MRSA (ATCC 33591), read-out: MIC value): 3.12 µM (≈ 2.29 µg/mL); MIC (MRSA (ATCC 33591); MRSA (ATCC 33591), read-out: MIC(μM) (ATCC 33591)): 3.12 µM (≈ 2.29 µg/mL); MIC (S. aureus (RN 4220)): 3.12 µM (≈ 2.29 µg/mL); MIC (S. aureus (ATCC 29213) [2]; ATCC 29123 / ATCC 29213, S. aureus (ATCC 29123) as printed, read-out: MIC value): 3.12 µM (≈ 2.29 µg/mL); MIC (S. aureus (ATCC 29213) [2]; ATCC29213, S. aureus (ATCC 29213), read-out: MIC(μM) (ATCC 29213)): 3.12 µM (≈ 2.29 µg/mL); MIC compared with Daptomycin ([3]; Strep. tests (Strep. pneumoniae ATCC 49619, Strep. pyogenes ARC 838)): at least improvement over Daptomycin; MIC ([3]; Streptococcus pneumoniae, ATCC49619, Strep. pneumoniae (ATCC 49619)): 6.25 µM (≈ 4.58 µg/mL); MIC [4]: 6.25 µM (≈ 4.58 µg/mL); activity on E. faecalis (E. faecalis): showed activity; mode of action (regrowth after dilution of the antibacterial) (S. aureus (ATCC 29213) [1]): bactericidal mode of action
CN(C(=O)[C@H](CCCNC(=N)N)NC(=O)[C@@H](N)Cc1ccc(-c2ccccc2)cc1)[C@@H](Cc1ccc(-c2ccccc2)cc1)C(=O)NCCCCNC(=N)N [Compound 18] | 6.25 µM (≈ 4.67 µg/mL) | 
CCCCCCCCCC(=O)N[C@@H](Cc1ccc(-c2ccccc2)cc1)C(=O)N[C@@H](CCCNC(=N)N)C(=O)N[C@@H](Cc1ccc(-c2ccccc2)cc1)C(=O)NCCCCNC(=N)N [Compound 25] | 12.5 µM (≈ 11.1 µg/mL) | 
N=C(N)NCCCCNC(=O)[C@H](Cc1ccc(-c2ccccc2)cc1)NC(=O)[C@H](CCCNC(=N)N)NC(=O)[C@H](N)Cc1ccc(-c2ccccc2)cc1 [Compound 4] | 25 µM (≈ 18.3 µg/mL) | 
N=C(N)NCCCCNC(=O)CN(Cc1ccc(-c2ccccc2)cc1)C(=O)[C@@H](CCCNC(=N)N)NC(=O)[C@H](N)Cc1ccc(-c2ccccc2)cc1 [Compound 11] |  | MIC (MRSA (ATCC 33591)): 12.5 µM (≈ 9.16 µg/mL)
N=C(N)NCCCCNC(=O)[C@@H](Cc1ccc(-c2ccccc2)cc1)NC(=O)[C@H](CCCNC(=N)N)NC(=O)[C@@H](N)Cc1ccc(-c2ccccc2)cc1 [Compound 2] | 12.5 µM (≈ 9.16 µg/mL) | 
N=C(N)NCCCCNC(=O)[C@H](Cc1ccccc1)NC(=O)[C@H](CCCNC(=N)N)NC(=O)[C@@H](N)Cc1ccc(-c2ccccc2)cc1 [Compound 8] (H-[Bip]-Arg-Phe-Agmatine) | 25 µM (≈ 16.4 µg/mL) | 
N=C(N)NCCCCNC(=O)[C@H](Cc1ccc2ccccc2c1)NC(=O)[C@H](CCCNC(=N)N)NC(=O)[C@@H](N)Cc1ccc(-c2ccccc2)cc1 [Compound 9] | 50 µM (≈ 35.3 µg/mL) | 
N=C(N)NCCCCNC(=O)[C@H](Cc1ccc(-c2ccccc2)cc1)NC(=O)[C@H](CCCN)NC(=O)[C@@H](N)Cc1ccc(-c2ccccc2)cc1 [Compound 14] (H-[Bip]-[Orn]-[Bip]-Agmatine) | 12.5 µM (≈ 8.64 µg/mL) | 
N=C(N)NCCCCNC[C@H](Cc1ccc(-c2ccccc2)cc1)NC(=O)[C@H](CCCNC(=N)N)NC(=O)[C@@H](N)Cc1ccc(-c2ccccc2)cc1 [Compound 27] | 6.25 µM (≈ 4.49 µg/mL) | 
